Measurements published in paper PMC12336439 (Archiv Der Pharmazie, 2025).
Where “and” joins values, the source holds several entries; their conditions need not be identical. Equal entries are not always repeated. Where two headings read alike, the source gives them in different places.

Tests used:
[1] = biological target: T1, USP7asoc (active site only cysteine) (Homo sapiens, UniProt Q93009, C300S/C315S/C334S/C478S/C488S/C510S); assay: Differential scanning fluorimetry (DSF), melting temperature shift of USP7asoc mutant; format: binding; conditions: 8 µM protein, 250 µM compound (1:31.25)
T1 construct: (208‐560, C300/315/334/448/478/510S); made in house
T1 sequence (Q93009 with tags, fused parts or gaps C300S/C315S/C334S/C478S/C488S/C510S): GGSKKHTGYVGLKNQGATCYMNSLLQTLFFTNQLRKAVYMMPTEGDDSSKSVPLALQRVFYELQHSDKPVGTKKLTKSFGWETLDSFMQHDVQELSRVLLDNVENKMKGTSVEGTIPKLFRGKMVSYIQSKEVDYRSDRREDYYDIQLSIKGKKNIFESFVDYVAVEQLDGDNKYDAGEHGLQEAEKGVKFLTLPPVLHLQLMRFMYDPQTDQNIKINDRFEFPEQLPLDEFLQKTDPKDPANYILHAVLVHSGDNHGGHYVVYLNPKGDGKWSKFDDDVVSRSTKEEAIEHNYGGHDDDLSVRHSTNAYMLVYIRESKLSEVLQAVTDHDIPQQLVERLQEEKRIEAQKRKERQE
Description: USP7asoc only retains the catalytic Cys223 while all the other six cysteines are mutated to serine. DSF was selected for initial assessment since it is an efficient and rapid primary screening method readily available to our lab. […] An important consideration when assessing covalent inhibitors is the time dependence of covalent target occupancy and thus potency, which is determined by the reaction kinetics of the covalent binding event. To allow for drawing conclusions on compounds with slower reaction kinetics, incubation times of 30 min, 4 h, and 24 h at 20°C were chosen for the DSF screen with USP7 (Table 1 and Figures 2 and 3). The threshold at which compounds were considered (de‐)stabilizers was defined at 0.5°C. In parallel, the intrinsic reactivity of a set of representative compounds was evaluated in a glutathione reactivity assay. […] The expression and purification of USP7 catalytic domain (USP7CD) (208‐560) and USP7asoc (active site only cysteine) by using a pET24a(+)_HLT_USP7 construct were performed as previously described. […] For the USP7asoc, six of the seven cysteines are mutated to serines (208‐560, C300/315/334/448/478/510S). All utilized protein sequences are depicted in Supporting Information S2: Table S.3.1. The melting temperatures of USP7 and USP7asoc in the presence or absence of fragments were determined by DSF on a Qiagen Rotor‐Q Model‐5‐Plex HRM real‐time PCR instrument (Qiagen, Hilden, Germany). SYPRO Orange (Life Technologies Corporation, Eugene, OR, USA) was used as a fluorescent dye at a final concentration of 5x. The protein concentration was 8 µM, and the final compound concentration was 250 µM, corresponding to a protein‐to‐compound ratio of 1:31.25. All compounds were dissolved in dimethyl sulfoxide (DMSO) and the proteins in Tris buffer (25 mM Tris pH 8.0, 150 mM NaCl, 5 mM TCEP, 5% (v/v) DMSO). All measurements were performed after 30 min, 4 h, and 24 h of incubation and at least in triplicate. DSF experiments were carried out with a constant heating rate of 270°C/h. The temperature was ramped from 28°C to 60°C–70°C with excitation and emission filters set at 470 nm and 610 nm, respectively. The melting temperatures (T m) of USP7 and USP7asoc were determined from the maxima of the first derivatives of the melting curves in OriginPro2020 (OriginLab, Northampton, MA, USA). The ∆T m was calculated by subtraction of the T m of the protein sample with pure DMSO from the T m of the protein sample mixed with compound. Error propagation was used to average multiple runs for a compound. A compound was considered to be a hit if the shift in the ∆T m was at least 0.50°C [55].

USP7 [2] = biological target: T2, USP7 (Homo sapiens, UniProt Q93009); design: method as in PMID 40165995; conditions: hit from earlier screen of covalent kinase inhibitor library; cited from earlier work
T2 construct: USP7 catalytic domain (USP7CD) (208‐560); made in house
T2 sequence (Q93009 with tags, fused parts or gaps): as the sequence (Q93009 with tags, fused parts or gaps C300S/C315S/C334S/C478S/C488S/C510S) above, with S96C, S111C, S130C, S274C, S284C, S306C counted along it

USP7 [3] = biological target: T2, USP7; design: method as in PMID 40165995; conditions: 24 h incubation at 20°C, ratio 1:31.25; spectra reported previously; cited from earlier work
USP7 [4] = biological target: T2, USP7; assay: Differential scanning fluorimetry (DSF), melting temperature shift of USP7; format: binding; conditions: 8 µM protein, 250 µM compound (1:31.25)
Description: The influence of the synthesized compounds on the melting temperature (T m) of USP7 and its mutant USP7asoc (active site only cysteine) was investigated by DSF. USP7asoc only retains the catalytic Cys223 while all the other six cysteines are mutated to serine. DSF was selected for initial assessment since it is an efficient and rapid primary screening method readily available to our lab.
An important consideration when assessing covalent inhibitors is the time dependence of covalent target occupancy and thus potency, which is determined by the reaction kinetics of the covalent binding event. To allow for drawing conclusions on compounds with slower reaction kinetics, incubation times of 30 min, 4 h, and 24 h at 20°C were chosen for the DSF screen with USP7 (Table 1 and Figures 2 and 3). The threshold at which compounds were considered (de‐)stabilizers was defined at 0.5°C. In parallel, the intrinsic reactivity of a set of representative compounds was evaluated in a glutathione reactivity assay. […] Data obtained from the GSH reactivity studies are shown in Supporting Information S2: Table S2.1 and Figures S2.1–2.3.
The melting temperatures of USP7 and USP7asoc in the presence or absence of fragments were determined by DSF on a Qiagen Rotor‐Q Model‐5‐Plex HRM real‐time PCR instrument (Qiagen, Hilden, Germany). SYPRO Orange (Life Technologies Corporation, Eugene, OR, USA) was used as a fluorescent dye at a final concentration of 5x. The protein concentration was 8 µM, and the final compound concentration was 250 µM, corresponding to a protein‐to‐compound ratio of 1:31.25. All compounds were dissolved in dimethyl sulfoxide (DMSO) and the proteins in Tris buffer (25 mM Tris pH 8.0, 150 mM NaCl, 5 mM TCEP, 5% (v/v) DMSO). All measurements were performed after 30 min, 4 h, and 24 h of incubation and at least in triplicate. DSF experiments were carried out with a constant heating rate of 270°C/h. The temperature was ramped from 28°C to 60°C–70°C with excitation and emission filters set at 470 nm and 610 nm, respectively. The melting temperatures (T m) of USP7 and USP7asoc were determined from the maxima of the first derivatives of the melting curves in OriginPro2020 (OriginLab, Northampton, MA, USA). The ∆T m was calculated by subtraction of the T m of the protein sample with pure DMSO from the T m of the protein sample mixed with compound. Error propagation was used to average multiple runs for a compound. A compound was considered to be a hit if the shift in the ∆T m was at least 0.50°C [55].

USP7asoc = biological target: T3, USP7asoc (Homo sapiens, UniProt Q93009, C300S/C315S/C334S/C478S/C488S/C510S); design: method as in PMID 40165995; conditions: 24 h incubation at 20°C, ratio 1:31.25; spectra reported previously; cited from earlier work
T3 construct: (208‐560, C300/315/334/448/478/510S); made in house
T3 sequence (Q93009 with tags, fused parts or gaps C300S/C315S/C334S/C478S/C488S/C510S): as the sequence (Q93009 with tags, fused parts or gaps C300S/C315S/C334S/C478S/C488S/C510S) above

[5] = biological target: T4, USP7cd (USP7 catalytic domain) (Homo sapiens, UniProt Q93009); assay: Ub-AMC enzyme activity assay, IC50 determination; format: biochemical; conditions: 10 nM USP7cd, 500 nM Ub-AMC, 24 h pre-incubation at 20°C
T4 construct: USP7 catalytic domain (USP7CD) (208‐560); made in house
T4 sequence (Q93009 with tags, fused parts or gaps): as the sequence (Q93009 with tags, fused parts or gaps C300S/C315S/C334S/C478S/C488S/C510S) above, with S96C, S111C, S130C, S274C, S284C, S306C counted along it
Description: Therefore, USP7 was incubated for 24 h with ten different compound concentrations, and IC50 values were then obtained with a fluorescent DUB substrate (Ub‐AMC) (Figure 9A–F). The pre‐incubation times were chosen to account for the slow covalent binding kinetics observed in the previous experiments.
The cleavage activity of USP7cd in the presence or absence of inhibitors was measured using Ubiquitin‐Aminomethylcoumarin (Ub‐AMC) (Enzo Life Sciences GmbH, Lörrach, Germany) as a fluorogenic substrate. The fluorescence was monitored using the CLARIOstar plate reader (BMG Labtech GmbH, Ortenberg, Germany) at 25°C at 360 nm excitation and 460 nm emission wavelengths. […] Each measurement was performed at least twice in duplicate. […] Ub‐AMC was added to a final concentration of 500 nM, and the fluorescence was measured after 1 h. The normalized dose‐response semi‐logarithmic curves were fitted using OriginPro2021 and the four‐parameter logistic function.
Different concentrations of compounds were pre-incubated with USP7 for 24 h at 20 °C in a rotating shaker in 25 mM Tris pH 8.0, 150mM NaCl, 5 mM TCEP supplemented with 0.2 mg/mL bovine serum albumin (BSA). Fluorescence was measured after 1 h of the addition of Ub-AMC. The dose response semi-logarithmic curves were fitted using OriginPro2021 and the four-parameter logistic function.

Compound	∆T m ± SD USP7asoc ([1]; 30 min incubation at 20°C)	∆T m ± SD USP7asoc ([1]; 4 h incubation at 20°C)	temperature decrease with USP7 in DSF (USP7 [2])	protein species in deconvoluted mass spectrum of USP7 (USP7 [3])	∆T m ± SD USP7 (USP7 [4]; 30 min incubation at 20°C)	∆T m ± SD USP7 (USP7 [4]; 4 h incubation at 20°C)	protein species in deconvoluted mass spectrum of USP7asoc (USP7asoc)	IC50 ([5]; read-out: IC50 USP7cd)	IC50 ([5]; supplement table, read-out: Biological Activity (IC50)) [µM]	∆T m ± SD USP7asoc ([1]; 24 h incubation at 20°C) [°C]	∆T m ± SD USP7 (USP7 [4]; 24 h incubation at 20°C) [°C]
Cn1cc(-c2cccc3cnc(Nc4nc(F)ccc4[N+](=O)[O-])cc23)cn1 [7a, N‐(6‐Fluoro‐3‐nitropyridin‐2‐yl)‐5‐(1‐methyl‐1H‐pyrazol‐4‐yl)isoquinolin‐3‐amine]	–0.10 ± 0.09 °C	–0.25 ± 0.09 °C	–4 °C	mono‐arylated protein species as the main peak	–0.13 ± 0.08 °C	–0.23 ± 0.06 °C	single covalent modification as the main peak	43.3 µM and 43 µM	48.2 ± 6.89		
Cn1cc(-c2cccc3cnc(Nc4nc(Cl)ccc4[N+](=O)[O-])cc23)cn1 [8a, N‐(6‐Chloro‐3‐nitropyridin‐2‐yl)‐5‐(1‐methyl‐1H‐pyrazol‐4‐yl)isoquinolin‐3‐amine]	0.10 ± 0.27 °C	0.10 ± 0.09 °C		unmodified and mono‐arylated protein species were visible with nearly the same intensity	0.20 ± 0.09 °C	0.45 ± 0 °C	unmodified protein species as the main peak			0.10 ± 0.09	0.20 ± 0.09
